Laboratory results as given in the NIST ThermoML archive (doi:10.1021/acs.jced.7b01040).

How the values were obtained:
[1] = for vapor or sublimation pressure: Transpiration method; for Normal melting temperature: DTA; for Triple point temperature: DSC
[2] = Molar enthalpy of transition or fusion; details: DSC

Cc1c(Br)c(Br)c(C)c(Br)c1Br [1,2,4,5-tetrabromodimethylbenzene]
[1], Crystal
Details | vapor or sublimation pressure [kPa]
322.8 K | 2.4e-06
327.7 K | 4.2e-06
332.7 K | 7.2e-06
337.5 K | 1.25e-05
342.5 K | 2.1e-05
347.5 K | 3.6e-05
352.4 K | 5.9e-05
357.5 K | 0.0001
362.4 K | 0.00016
367.4 K | 0.00025

Crystal
Details | Molar enthalpy of transition or fusion [kcal/mol] | Normal melting temperature [°C]
[1] | – | 254.2
[2] | 5.71 | –

BrCC(Br)COc1c(Br)cc(Br)cc1Br (centres undefined) [1,3,5-tribromo(2,3-dibromopropoxy)benzene]
[1], Liquid
Details | vapor or sublimation pressure [kPa]
322.9 K | 1.9e-06
327.8 K | 3.2e-06
332.7 K | 5.5e-06
337.7 K | 9.6e-06
342.7 K | 1.7e-05
347.7 K | 2.7e-05
352.7 K | 4.3e-05
357.7 K | 6.7e-05
362.7 K | 0.00013
367.7 K | 0.00016

Details | Molar enthalpy of transition or fusion, [2] [kcal/mol] | Triple point temperature, [1] [K]
Crystal 1 | 0.612 | 313.7
Crystal 2 | 4.09 | 307.9

CCc1c(Br)c(Br)c(Br)c(Br)c1Br [pentabromoethylbenzene]
[1], Crystal
Details | vapor or sublimation pressure [kPa]
322.7 K | 3.7e-06
327.6 K | 6.1e-06
332.6 K | 1.04e-05
337.5 K | 1.7e-05
342.4 K | 3.2e-05
347.4 K | 4.9e-05
352.3 K | 8.3e-05
357.4 K | 0.00013
362.3 K | 0.00021
367.3 K | 0.00032

Crystal
Details | Molar enthalpy of transition or fusion [kcal/mol] | Normal melting temperature [°C]
[1] | – | 135.8
[2] | 3.2 | –

Cc1c(Br)c(Br)c(Br)c(Br)c1Br [pentabromomethylbenzene]
[1], Crystal
Details | vapor or sublimation pressure [kPa]
322.9 K | 2.7e-07
327.8 K | 5.1e-07
332.9 K | 9.1e-07
337.6 K | 1.62e-06
342.7 K | 2.9e-06
347.6 K | 5.5e-06
352.6 K | 9e-06
357.6 K | 1.5e-05
362.5 K | 2.7e-05
367.6 K | 4.2e-05

Crystal
Details | Molar enthalpy of transition or fusion [kcal/mol] | Normal melting temperature [°C]
[1] | – | 286
[2] | 7 | –

Oc1c(Br)c(Br)c(Br)c(Br)c1Br [pentabromophenol]
[1], Crystal 2
Details | vapor or sublimation pressure [kPa]
322.9 K | 1.9e-07
327.8 K | 3.6e-07
332.8 K | 6.7e-07
337.7 K | 1.2e-06
342.6 K | 2.3e-06
347.6 K | 4.2e-06
352.6 K | 7.8e-06
357.6 K | 1.4e-05
362.6 K | 2.7e-05
367.4 K | 4.5e-05

Details | Molar enthalpy of transition or fusion, [2] [kcal/mol] | Triple point temperature, [1] [K]
Crystal 1 | 4.42 | 496.3
Crystal 2 | 2.82 | 416.2
